This test deals with Polymerase acidic protein (Influenza A virus (A/Puerto Rico/8/1934(H1N1)), UniProt P03433). As to conditions: hek293t.

Consider `CCCOC(=O)[C@@H]1Cc2cc(O)c(O)cc2[C@H](Cc2ccc(O)c(O)c2)N1C(=O)c1ccccc1Cl`, for which the IC50 (usually the point on the concentration scale where inhibition reaches its midpoint) was 10.8 µM.

`O=C1c2c(O)c(=O)ccn2N([C@@H]2c3ccccc3SCc3c2ccc(F)c3F)[C@@H]2COCCN12` [BALOXAVIR] had an IC50 of 300 µM.

For the origin of these results see ChEMBL document CHEMBL5316264, “Identification of N- and C-3-Modified Laudanosoline Derivatives as Novel Influenza PAN Endonuclease Inhibitors” (J Med Chem, 2023).
